This note sets out measurements from patent US20080166766A1, “Genetic incorporation of unnatural amino acids into proteins in mammalian cells” (The Scripps Research Institute, priority 2006, published 2008).

The subject of one series is T-REx™ CHO cells. Description: Yield of purified mutant GFP containing unnatural amino acid (pSWAN two-plasmid system). The series is classed as cell-based, Chinese hamster. Particulars: pMpa 10 mM, pApa 10 mM, pBpa 1 mM, pAzpa 5 mM, pPpa 1 mM in media, anti-myc column purified. From the text:
The pMpaRS gene was inserted directly after the non-regulated CMV promoter for efficient and continuous expression of pMpaRS. Another plasmid (pSWAN-GFP37TAG in FIG. 4B) containing both three tandem repeats of the BstRNACUA^Tyr gene and the GFP37TAG gene was also constructed. The gene encoding GFP37TAG was inserted after a Tet-regulated CMV promoter to minimize potential read-through of the nonsense amber codon caused by endogenous amber suppression in mammalian cells. These two plasmids were then assayed for their suppression efficiency. Because both plasmids contain three tandem repeats of the BstRNACUA^Tyr gene, varying the ratio of the two plasmids to increase the suppression level is not expected to change the total amount of the BstRNACUA^Tyr gene transfected into cells. Under optimized transfection conditions (0.5 μg of pSWAN-pMpaRS and 2.5 μg pSWAN-GFP37TAG per 2×10^6 cells), the suppression level is roughly two-fold higher than that using the three plasmids pUC18-3BstRNACUA^Tyr, pcDNA4-pMpaRS, and pcDNA4-GFP37TAG (the suppression level was determined by the number of fluorescent cells). Cells were grown for 1-2 days after induction and kept viable before harvesting. The yield of mutant GFP containing pMpa (GFP-pMpa) was also quantified. In the presence of 10 mM pMpa in the growth media, 1 μg of mutant GFP can be obtained from 2×10^7 adhesive T-REx™ CHO cells.
Transient transfection of T-REx™ CHO and 293 cells with the pSWAN-EcTyrRS variants and pSWAN-GFP37TAG (0.5 μg of pSWAN-EcTyrRS variant and 2.5 μg of pSWAN-GFP37TAG per 2×10^6 cells) all afforded roughly two-fold higher suppression levels than for the three plasmids pUC18-3BstRNACUA^Tyr, pcDNA4-EcTyrRS variant, and pcDNA4-GFP37TAG (with the exception of the pIpa specific variant). Mutant GFPs containing pApa, pBpa, pAzpa or pPpa were also expressed in T-REx™ CHO cells transfected with the pSWAN-EcTyrRS variants and pSWAN-GFP37TAG and grown in media containing the corresponding unnatural amino acid (pApa, 10 mM; pBpa, 1 mM; pAzpa, 5 mM; or pPpa, 1 mM) for 1-2 days, and purified using an anti-myc antibody column. The yields of the mutant proteins containing pApa and pAzpa were close to that for pMpa (˜1 μg per 2×10^7 cells), and the yields of mutant proteins containing pBpa and pPpa were somewhat lower (˜0.7 μg per 2×10^7 cells). Because the expression levels of EcTyrRS variants in T-REx™ CHO cells are similar, the lower yield of the mutant proteins containing pBpa and pPpa may be due to the low concentrations of unnatural amino acids in the media.
pSWAN-EcTyrRS variants and pSWAN-GFP37TAG were used to express mutant GFPs containing unnatural amino acids. T-REx™ CHO cells (Invitrogen™) were grown in 75 cm^2 tissue culture flasks (BD Biosciences) to 80-90% confluency and transfected with 2 μg of pSWAN-EcTyrRS and 10 μg pSWAN-GFP37TAG using […] FuGENE® 6. After overnight incubation, the media were changed to the fresh media containing the unnatural amino acid (pMpa, 10 mM; pApa, 10 mM; pBpa, 1 mM; pAzpa, 5 mM; and pPpa, 1 mM) and 1 μg/ml tetracycline. Cells were then grown for 1-2 days at 37° C. before harvesting, and then lysed with RIPA lysis buffer. The supernatant from the cell lysate was dialyzed against and equilibrated with PBS buffer before loading onto an anti-myc antibody agarose column (Sigma). The column was washed with 15 column volumes of PBS buffer and then eluted with 0.1 M ammonium hydroxide. The purified proteins were neutralized with 0.1 M acetic acid and analyzed by SDS-PAGE. […]

A short description of series [1]: Decay of azido amino acid seen in tandem MS of mutant GFP. The following applies: mutant GFP containing pAzpa; azido group chemically reactive and photo-unstable. The series is classed as physicochemical. How it is done:
The mutant GFP containing pAzpa was only weakly detectable. […] The data from all five mutant proteins indicate the high selectivity and fidelity of the incorporation of unnatural amino acids.
(§1) Nano-RP LC/MS/MS was performed with an HPLC pump, autosampler (Agilent Technologies, Palo Alto, Calif.), and an LTQ Orbitrap hybrid mass spectrometer (ThermoElectron, San Jose, Calif.). Tryptic digests were loaded with a pressure bomb onto a 75 μm i.d. precolumn packed with 4 cm of 5-μm Monitor C18 particles (Column Engineering, Ontario, Calif.) at a flow rate of approximately 2 μl/min. The precolumn was then connected to the HPLC pump and after several minutes of washing with solvent A the analytical column with integrated emitter tip (360 μm O.D.×75 μm i.d; 10 cm of 5 μM C18, ˜5-μm tip) was connected in series. The chromatographic profile was from 100% solvent A (0.1% aqueous acetic acid) to 50% solvent B (0.1% acetic acid in acetonitrile) in 40 min; the flow rate through the analytical column was ca. 100 nl/min.

For the next series, the system named is position 37 of GFP. Put plainly: Fidelity of unnatural amino acid incorporation by mass spectrometry (nano-RP LC/MS/MS, ESI TOF-MS). The following applies: nano-RP LC/MS/MS of tryptic fragments, mutant GFP from T-REx CHO cells.
Source text: To further characterize GFP-pMpa, the mutant protein was expressed in T-REx™ CHO cells transiently transfected with both pSWAN-pMpaRS and pSWAN-GFP37TAG. The protein was purified using an anti-myc antibody agarose column and then separated by SDS-PAGE. The GFP-pMpa band from the SDS-PAGE gel was digested with trypsin and analyzed by nanoscale reversed-phase liquid chromatography/mass spectrometry/mass spectrometry (nano-RP LC/MS/MS). In parallel, wild type GFP was purified from cells transfected with pcDNA4-GFP and subjected to the same analysis.
Proteolysis of affinity purified proteins (performed for wild-type and pBpa samples) was carried out by overnight incubation of proteins at 37° C. with sequencing-grade modified trypsin (Promega) using a substrate/enzyme ratio of 10:1 (wt/wt) based on the estimated protein concentration in 100 mM triethylammonium bicarbonate buffer (pH 8.5). In-gel digestions (performed for pMpa, pAzpa, pApa, and pPpa samples) were performed according to a modified EMBL procedure (see the website for EMBL, Heidelberg, Germany, Bioanalytical Research Group). Briefly, gel slices were excised to approximately 1 mm×1 mm cubes, washed for 5 minutes with water, 15 minutes with acetonitrile, and dried in a vacuum centrifuge before being rehydrated at 0° C. for 30 minutes with 12.5 ng/μl of sequencing-grade modified trypsin in 50 mM triethylammonium bicarbonate buffer (pH 8.5). Excess buffer was removed and 20 μl of 50 mM triethylammonium bicarbonate buffer (pH 8.5) was added to the gel slices before incubating at 37° C. overnight. Peptides were extracted from the gel slices as described in the protocol.
as §1
For data-dependent experiments, the mass spectrometer was programmed to first record a high-resolution Orbitrap scan then a full-scan ion trap spectrum (m/z 500-2,000). This was followed by 10 data-dependent MS/MS scans (relative collision energy=35%; 3-Da isolation window) triggered of the ion-trap scan and finally two targeted MS/MS scans. The first targeted MS/MS scan was set to isolate and fragment the doubly charged precursor ion of the predicted unnatural amino acid modified peptide
at m/z 752.3. The raw data were searched against the MSDB database using MASCOT (Matrixscience, London, UK) for protein identification and to find the scans containing the target peptides with the unnatural amino acids as variable modification. To estimate fidelity at Y*37 of GFP-pMpa, single ion chromatograms (doubly charged precursor ions at m/z 752.3 for the wt and 759.3 for pMpa) and selected ion chromatograms (y9, y11, and y12) were integrated using the Xcalibur software package (ThermoElectron, San Jose, Calif.).
Intact protein mass spectra were acquired on an automated LC/MS system (Waters, Milford, Mass.) consisting of a capillary LC with auto-sampler and a QTOF2 mass spectrometer. GFP-pMpa (0.1 mg/ml) was loaded onto a reversed-phase protein Captrap (Michrom Bioresources, Auburn, Calif.) for desalting with 0.1% acetic acid in water and eluted with 80% acetonitrile/0.1% acetic acid at 5 μl/min into the ESI source of the mass spectrometer. […]

The test system of another series is mammalian cells. Put plainly: Cellular toxicity of heterologous synthetase expression. The series is classed as cell-based. The following applies: under the growth conditions used.

Take `[N-]=[N+]=Nc1ccc(C[C@H](N)C(=O)O)cc1` [pAzpa, p-azidophenylalanine]: the “yield of mutant GFP containing the unnatural amino acid” value with T-REx™ CHO cells is around 1 μg per 2×10^7 cells. Also, in series [1], the “decay of the amino acid in mutant GFP (tandem MS)” value is “Most of pAzpa decays to pAmpa”. Moreover, the “wild type peptide signals in tandem MS of mutant GFP sample” value in the series with position 37 of GFP is listed as “No wild type signals could be detected”.

B1: pMpaRS: EcTyrRS variant Y37V/D182S/F183M that charges BstRNACUA^Tyr with pMpa (protein, UniProt P0AGJ9 2-424, looked up, variant Y37V D182S F183M)
Tyrosine--tRNA ligase: ASSNLIKQLQERGLVAQVTDEEALAERLAQGPIALVCGFDPTADSLHLGHLVPLLCLKRFQQAGHKPVALVGGATGLIGDPSFKAAERKLNTEETVQEWVDKIRKQVAPFLDFDCGENSAIAANNYDWFGNMNVLTFLRDIGKHFSVNQMINKEAVKQRLNREDQGISFTEFSYNLLQGYSMACLNKQYGVVLQIGGSDQWGNITSGIDLTRRLHQNQVFGLTVPLITKADGTKFGKTEGGAVWLDPKKTSPYKFYQFWINTADADVYRFLKFFTFMSIEEINALEEEDKNSGKAPRAQYVLAEQVTRLVHGEEGLQAAKRITECLFSGSLSALSEADFEQLAQDGVPMVEMEKGADLMQALVDSELQPSRGQARKTIASNAITINGEKQSDPEYFFKEEDRLFGRFTLLRRGKKNYCLICWK
Regarding B1, the “cellular toxicity of heterologous expression” value with mammalian cells was “did not show any apparent cellular toxicity”.
